These results are taken from patent US8697140B2, “Virucidal disinfectant” (priority 2005, dated 2014).

Test [1] has as its system poliovirus (polio vaccination strain type I, strain LSc-2ab).
In test [2] the test system is poliovirus. The conditions noted are these: cited from earlier work.

Several values for one entry are separate records, joined by “and”; a condition that tells them apart may be missing. Equal values may be shown once.

On to `C=O` [formaldehyde solution, formaldehyde], for which, in test [1], the “Reduction of poliovirus titer” value was 1.25 log10 steps and 2.13 log10 steps.

Turning to `O=P(O)(O)O` [phosphoric acid], the Effectiveness against poliovirus result in test [2] is on record as “ineffective”.
